Measured values as given in patent US4308181A, “Polypeptide compositions” (American Home Products Corporation, priority 1980, dated 1981).
Residues, ends and D or L forms follow the SMILES beside them.

Tested on: T lymphocytes isolated from spleens of male CBA/J or NZB mice
Assay: T lymphocyte proliferation, 3H-thymidine uptake
Assay type: cell-based
Conditions: 48 h culture
Procedure: The activity of the compounds of the Examples is determined according to the following procedure:
T lymphocytes are isolated from spleens of male CBA/J or NZB mice. Cell homogenates are prepared in Hank's balanced salt solution (HBSS). After removal of larger particles and repeated washing of the cells in HBSS they are suspended in minimum essential medium (MEM) and passed through a glass wool column to remove macrophages. The cells are then incubated on a nylon wool column at 37° C., 95% air, 5% CO2, for 45 minutes. The non-adherant T lymphocytes are then eluted from the column, counted, and adjusted to 20×10^6 cells/ml. 50 μl. of cells are cultured (37° C., 95% air, 5% CO2) with compound, for 48 hours before addition of 0.5 μCi. of 3H-thymidine for the last 16 hours of culture. The total volume of the culture system is 200 μ l. The cells are then harvested on a multiple automatic sample harvester (MashII), the glass fiber filter disks placed in 10 ml. of xylene base scintillation fluid, and counted for 1 minute in a liquid scintillation counter. Results are reported as CPM+SE. Comparisons are made between counts obtained with control cultures and cultures containing compound and a determination made as to whether the compounds are active at the dosage tested.

[1] = 0.75 ng/culture, run with control 19,275 ± 1298
[2] = 1.5 ng/culture, run with control 9,876 ± 951
[3] = 1.5 ng/culture, run with control 19,275 ± 1298
[4] = 6.0 ng/culture, run with control 9,876 ± 951
[5] = 6.0 ng/culture, run with control 19,275 ± 1298
[6] = 25 ng/culture, run with control 9,876 ± 951
[7] = 100 ng/culture, run with control 9,876 ± 951

| SMILES | H-Thymidine Uptake CPM + S.E. [1] | H-Thymidine Uptake CPM + S.E. [2] | H-Thymidine Uptake CPM + S.E. [3] | H-Thymidine Uptake CPM + S.E. [4] | H-Thymidine Uptake CPM + S.E. [5] | H-Thymidine Uptake CPM + S.E. [6] | H-Thymidine Uptake CPM + S.E. (25 ng/culture, run with control 19,275 ± 1298) | H-Thymidine Uptake CPM + S.E. [7] |
| --- | --- | --- | --- | --- | --- | --- | --- | --- |
| CC(=O)N[C@@H](CO)C(=O)N[C@@H](Cc1c[nH]cn1)C(=O)N[C@@H](CC(C)C)C(=O)N[C@H](C(N)=O)C(C)C.CC(=O)O [Ac--Ser--His--Leu--Val--NH2, N-acetylseryl-L-histidyl-L-leucyl-L-valinamide, acetate] (Ac-SHLV-NH2) | 26,137 ± 6158 CPM | 30,925 ± 3256 CPM | 32,646 ± 2284 CPM | 26,741 ± 3049 CPM | 30,425 ± 8896 CPM | 28,206 ± 2233 CPM | 32,278 ± 5373 CPM | 20,758 ± 3027 CPM |
| CC(=O)NCC(=O)N[C@@H](CO)C(=O)N[C@@H](Cc1c[nH]cn1)C(=O)N[C@@H](CC(C)C)C(N)=O [Ac--Gly--Ser--His--Leu--NH2, N-acetylglycyl-L-seryl-L-histidyl-L-leucinaminde, acetate] (Ac-GSHL-NH2) | 41,019 ± 6047 CPM | 15,028 ± 1178 CPM | 48,033 ± 5499 CPM | 19,423 ± 1031 CPM | 38,254 ± 7188 CPM | 19,433 ± 3092 CPM |  | 20,409 ± 4081 CPM |
